Measured values reported in US6974820B2, “Methods for treating urinary incontinence and other disorders using trospium” (Bridge Pharma, Inc., priority 2002, dated 2005).
Where two headings read alike, the source gives them in different places.

Columns and labels:
[1] = system: QTc interval of the ECG; assay: Cardiac side effects: QTc interval of the ECG in anesthetized guinea pigs; conditions: for Prolongation of the QTc interval of the ECG (in words): intravenous infusion; for ΔQTc (%): intravenous infusion over 30 min
[2] = biological target: T1, CYP 2D6 (Homo sapiens, UniProt P10635); assay: biochemical
[3] = biological target: T2, human recombinant muscarinic receptor M-1 (Homo sapiens, UniProt P11229); assay: biochemical; format: binding
T2 construct: expressed in transfected cells; host or cells: SF9 insect cells (membranes)
T2 sequence (P11229 1-460): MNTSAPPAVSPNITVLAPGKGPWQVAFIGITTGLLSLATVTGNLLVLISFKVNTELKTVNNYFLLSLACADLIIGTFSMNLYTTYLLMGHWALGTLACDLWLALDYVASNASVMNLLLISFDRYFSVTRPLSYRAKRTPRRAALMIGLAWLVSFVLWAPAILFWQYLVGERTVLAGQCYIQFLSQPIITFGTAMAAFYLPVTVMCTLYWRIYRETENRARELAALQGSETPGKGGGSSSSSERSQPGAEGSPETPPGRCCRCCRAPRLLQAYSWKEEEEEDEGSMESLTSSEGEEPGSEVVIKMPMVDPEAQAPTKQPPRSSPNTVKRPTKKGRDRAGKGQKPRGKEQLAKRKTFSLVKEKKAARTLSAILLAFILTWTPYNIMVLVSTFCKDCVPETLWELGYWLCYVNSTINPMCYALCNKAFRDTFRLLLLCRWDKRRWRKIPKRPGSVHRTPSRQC

[4] = biological target: T3, human recombinant muscarinic receptor M-3 (Homo sapiens, UniProt P20309); assay: biochemical; format: binding
T3 construct: expressed in transfected cells; host or cells: SF9 insect cells (membranes)

[5] = biological target: T4, human recombinant muscarinic receptor M-4 (Homo sapiens, UniProt P08173); format: binding
T4 construct: expressed in transfected cells; host or cells: SF9 insect cells (membranes)
T4 sequence (P08173 1-479): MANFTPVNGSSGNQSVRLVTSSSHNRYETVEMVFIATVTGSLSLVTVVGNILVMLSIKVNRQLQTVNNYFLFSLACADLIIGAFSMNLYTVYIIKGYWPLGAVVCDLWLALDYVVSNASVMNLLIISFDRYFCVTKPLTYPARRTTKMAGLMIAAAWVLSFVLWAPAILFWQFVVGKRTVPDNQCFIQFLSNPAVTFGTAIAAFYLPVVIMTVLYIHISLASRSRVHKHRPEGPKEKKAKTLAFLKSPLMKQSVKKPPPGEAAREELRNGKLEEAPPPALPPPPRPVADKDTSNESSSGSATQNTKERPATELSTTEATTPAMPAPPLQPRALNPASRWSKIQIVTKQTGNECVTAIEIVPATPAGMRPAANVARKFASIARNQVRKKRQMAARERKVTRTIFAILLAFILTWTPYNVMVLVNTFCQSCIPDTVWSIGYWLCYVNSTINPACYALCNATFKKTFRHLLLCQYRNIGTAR

[6] = biological target: T1, CYP 2D6

T1 sequence (P10635 whole entry): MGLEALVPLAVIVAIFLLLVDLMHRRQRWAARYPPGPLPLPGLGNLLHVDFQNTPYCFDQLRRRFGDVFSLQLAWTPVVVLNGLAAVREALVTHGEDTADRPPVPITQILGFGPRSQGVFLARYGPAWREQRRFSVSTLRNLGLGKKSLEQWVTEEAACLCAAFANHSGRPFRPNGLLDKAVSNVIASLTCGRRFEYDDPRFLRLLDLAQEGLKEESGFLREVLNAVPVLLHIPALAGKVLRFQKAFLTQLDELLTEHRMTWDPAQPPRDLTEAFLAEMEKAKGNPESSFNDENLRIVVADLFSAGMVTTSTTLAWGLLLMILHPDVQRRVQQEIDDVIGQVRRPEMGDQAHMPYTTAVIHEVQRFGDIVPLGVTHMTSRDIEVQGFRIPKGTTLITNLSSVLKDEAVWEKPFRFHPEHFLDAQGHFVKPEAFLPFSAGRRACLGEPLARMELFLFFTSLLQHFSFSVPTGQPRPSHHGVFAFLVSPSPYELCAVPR
T3 sequence (P20309 whole entry): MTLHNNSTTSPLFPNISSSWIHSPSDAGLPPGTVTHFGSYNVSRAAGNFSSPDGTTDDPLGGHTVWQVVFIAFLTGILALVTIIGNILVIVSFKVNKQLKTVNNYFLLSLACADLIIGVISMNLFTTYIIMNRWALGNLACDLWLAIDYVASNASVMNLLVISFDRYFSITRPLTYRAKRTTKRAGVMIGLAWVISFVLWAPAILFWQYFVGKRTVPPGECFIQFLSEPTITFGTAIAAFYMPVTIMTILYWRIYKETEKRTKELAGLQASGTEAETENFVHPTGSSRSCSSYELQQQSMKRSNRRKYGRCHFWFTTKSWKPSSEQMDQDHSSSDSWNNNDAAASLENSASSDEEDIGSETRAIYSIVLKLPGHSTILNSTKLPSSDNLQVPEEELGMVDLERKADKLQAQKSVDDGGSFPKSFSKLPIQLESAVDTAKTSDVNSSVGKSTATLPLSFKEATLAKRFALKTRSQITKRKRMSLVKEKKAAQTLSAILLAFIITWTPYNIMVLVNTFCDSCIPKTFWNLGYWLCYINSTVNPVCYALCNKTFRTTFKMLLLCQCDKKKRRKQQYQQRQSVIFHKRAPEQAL

Inhibition of CYP 2D6 isoenzyme metabolism (in words) [6]	Compound	Prolongation of the QTc interval of the ECG (in words) [1]	ΔQTc (%) [1]	IC50 [2] [nM]	Ki [3] [nM]	Ki [4] [nM]	Ki [5] [nM]	Ki ([5]; membranes of SF9 cells expressing human recombinant receptor, read-out: Affinity (negative logarithm of the dissociation constant Ki) M-4 (converted)) [nM]
	CC(CC(c1ccccc1)c1ccccc1)NC(C)(C)C (stereo not shown) [Terodiline]	statistically significant prolongation	+11 ± 1%					
	O=C(O[C@H]1C[C@H]2CC[C@@H](C1)[N+]21CCCC1)C(O)(c1ccccc1)c1ccccc1 [Trospium, 3α-hydroxy-spiro[1αH,5αH-nortropane-8,1′-pyrrolidinium] chloride benzilate]	no effects	−2 ± 1%	~20000	0.794	0.501	1	
potently inhibit	CCN(CC)CC#CCOC(=O)C(O)(c1ccccc1)C1CCCCC1 (stereo not shown) [Oxybutynin]	statistically significant prolongation	+12 ± 2%					
	Cc1ccc(O)c([C@H](CCN(C(C)C)C(C)C)c2ccccc2)c1 [Tolterodine]	statistically significant prolongation	+16 ± 1%		1.58			20
	CC(C)(C)c1ccc(C(O)CCCN2CCC(C(O)(c3ccccc3)c3ccccc3)CC2)cc1 (stereo not shown) [terfenadine]	caused QT-prolongation						
